These results are taken from US4483867A, “Antifibrinolytically active derivatives of tranexamic acid” (KabiVitrum AB, priority 1981, dated 1984).

Series [1] in a line: In vitro test - hydrolysis in human plasma (half life). Type of series: in vitro ADME. Particulars: 37° C., 2.3·10^-3 M, trans form, hydrochloride salt, HPLC, UV 210 nm. From the text:
(§1) In the biological tests described in sections A, B and C below, the test compounds were used in trans form and in the form of hydrochloride salt. The test results given in Tables 1 and 2 are average values.
(§2) The compounds of the present invention, which are esters of tranexamic acid, are converted to tranexamic acid in vivo either during the absorption through the gastro-intestinal wall or by enzymes present in the blood. In order to test the stability of compounds of the invention the half life in human plasma of a number of compounds of the invention was compared to the half life of the same ester in a phosphate buffer of the same pH. The half life, that is, the time within which the amount of unhydrolysed test compound is reduced by 50%, was calculated from the decrease of intact test compound with time. This decrease of intact test compound was monitored by UV-detection at 210 nm using high performance liquid chromatography (HPLC) in the reversed phase mode with mixtures of methanol and phosphate buffer as eluents. The stability in plasma was studied by addition of […] of plasma thermostated to 37° C. The concentration of the test compound in plasma amounted to 2.3·10^-3 M. The plasma samples were injected directly into the column after filtration. The half life in buffer solution were determined in the same way except that no filtration was needed.

Series [2] concerns fibrinolytic activity induced by porcine tissue activator. Kind of series: Antifibrinolytic activity in chandler loop (inhibition of clot lysis induced by porcine tissue activator). It is filed as biochemical, human blood; porcine tissue activator. The conditions noted are these: for Percent inhibition of fibrinolytic activity induced by porcine tissue activator: 1 micromole/liter, human blood, 20 PU/ml porcine tissue activator, six hours, mean. As for the experimental part: as §1
The antifibrinolytic properties of tranexamic acid and a number of compounds of the invention were tested in an artificial circulating blood system, the chandler loop (Chandler, A. B., In vitro thrombolytic coagulation of blood. A method for producing a thrombus. Lab.Invest. 7, 110, 1958.) Human blood was mixed with ^125 I-labelled fibrinogen, divided into 1.5 ml portions and filled into plastic tubings. After recalcification the loops were rotated for 24 hours during which ^125 I-labelled clots were formed. Fibrinolysis as measured with release of ^125 I-labelled fibrin degradation products from the clot, was initiated by adding 20 PU/ml of porcine tissue activator to the loops. Clot lysis was followed during six hours and the cumulative release of ^125 I FDP was plotted v.s. time of lysis. […] The effect on the clot lysis of compounds of the invention was tested in this system and compared to the inhibitory effect of tranexamic acid. No significant difference (p>0.05) between the antifibrinolytic effect of tranexamic acid and the tested compounds of the invention was found in this test system.

Series [3] can be described thus: In vitro test - hydrolysis in phosphate buffer pH 7.5 (half life). Type of series: physicochemical. Particulars: trans form, hydrochloride salt, HPLC, UV 210 nm.
Description: as §1, §2

Series [4] is described as follows: In vivo test - absorption in rats after oral administration (tranexamic acid recovered in urine). Particulars: for Absorption after oral administration, in words: compared to tranexamic acid. As for the experimental part: as §1
Rats were chosen to study the absorption after oral administration of compounds of the invention which are esters of tranexamic acid. Absorption of tranexamic acid itself is very poor in rats.
The determination of absorption in the rats was performed in the following way: Male rats in groups of three or four were given the test compound by gavage (1 mmol/kg-0.1 mmol/kg, 2 ml/kg). The urine was collected at the intervals 0-6, 6-24, 24-48 and 48-72 hours. At the end of each interval the cages were rinsed with 20 ml of distilled water, which also was collected and analysed. The urine sampls were then analysed for their content of tranexamic acid by a gaschromatographic method according to Wessman J., Stromberg S., Anal. Chem. 49 (1977) 369. The results are shown in table 1, where the total absorption is given as the molar amount of tranexamic acid which was recovered in the urine samples compared to the amount of administered test compound, also calculated as tranexamic acid.

The conditions of series [5]: normally, clinical use; cited from earlier work.
For series [6] the following is noted: large oral intake, about 3 to about 6 grams per 24 hours; cited from earlier work.

Structures can show the parent of a compound that is named as a salt.

As for `CC(C)(C)C(=O)OCOC(=O)[C@H]1CC[C@H](CN)CC1` [Example 1, pivaloyloxymethyl trans-4-aminomethylcyclohexanecarboxylate hydrochloride], the half-life (usually how long it takes for the measured level to halve) at 2300 µM in series [1] was 5 min. The “Percent inhibition of fibrinolytic activity induced by porcine tissue activator” value (from here on “Percent inhibition”) in series [2] is given as 19.3 ± 4.3%.

For the compound `CCOC(=O)OC(C)OC(=O)[C@H]1CC[C@H](CN)CC1` (stereo partly drawn) [Example 3, 1-(ethyloxycarbonyloxy)ethyl trans-4-aminomethylcyclohexanecarboxylate hydrochloride], the half-life at 2300 µM came to 90 h in series [3] and 1.5 min in series [1]. For the same compound, the “Percent inhibition” value in series [2] was found to be 23.4 ± 5.1%.

Turning to `CC(C)OC(=O)OC(C)OC(=O)[C@H]1CC[C@H](CN)CC1` (stereo partly drawn) [Example 4, 1-(isopropyloxycarbonyloxy)ethyl trans-4-aminomethylcyclohexanecarboxylate hydrochloride], the “Absorption after oral administration, in words” value in series [4] is “absorbed to a very high degree”. For the same compound, the “Percent inhibition” value in series [2] came to 25.8 ± 5.5%.

With `CC(=O)OC(C)OC(=O)[C@H]1CC[C@H](CN)CC1` (stereo partly drawn) [Example 5, 1-(acetyloxy) ethyl trans-4-aminomethylcyclohexanecarboxylate], the half-life at 2300 µM in series [1] was 9 min. Also, the “Percent inhibition” value in series [2] was 19.5 ± 4.7%.

Take `CC(C)C(=O)OCOC(=O)[C@H]1CC[C@H](CN)CC1` [Example 6, isobutyryloxymethyl trans-4-aminomethylcyclohexanecarboxylate]: the half-life at 2300 µM in series [1] is 0.5 min. The “Percent inhibition” value in series [2] is on record as 32.4 ± 5.3%.

With `CC(OC(=O)C(C)C)OC(=O)[C@H]1CC[C@H](CN)CC1` (stereo partly drawn) [Example 7, 1-(isobutyryloxy)ethyl trans-4-aminomethylcyclohexanecarboxylate], the “Percent inhibition” value in series [2] was found to be 23.8 ± 5.7%.

Consider `NC[C@H]1CC[C@H](C(=O)OCOC(=O)[C@H]2CC[C@H](CN)CC2)CC1` [Example 11, methandiol bis-(trans-4-aminomethylcyclohexanecarboxylate) dihydrochloride], for which the half-life at 2300 µM in series [3] is 26 h; in series [1], 1.5 min.

For the compound `CC(OC(=O)[C@H]1CC[C@H](CN)CC1)OC(=O)[C@H]1CC[C@H](CN)CC1` [Example 13, 1,1-Ethandiol bis-(trans-4-aminomethylcyclohexanecarboxylate) dihydrochloride], the values for the half-life at 2300 µM in series [3] and in series [1] were 70 h and 11 min, respectively.

On to `CN(C)C(=O)C(OC(=O)[C@H]1CC[C@H](CN)CC1)OC(=O)[C@H]1CC[C@H](CN)CC1` [Example 16, 2,2-dihydroxy-N,N-dimethylacetamide bis-(trans-4-aminomethylcyclohexanecarboxylate)], for which the “Percent inhibition” value in series [2] turned out to be 32.2 ± 4.7%.

For `NC[C@H]1CC[C@H](C(=O)O)CC1` [Tranexamic acid, trans-4-aminomethylcyclohexanecarboxylic acid], the “Absorption after oral administration, in words” value in series [4] is reported as “very poor”. The dose excreted at 72 h in series [4] (rat, po, male rats, by gavage, 1 mmol/kg-0.1 mmol/kg, 2 ml/kg, tranexamic acid recovered in urine 0-72 hours vs. amount administered, trans form, hydrochloride salt, read-out: Absorption Mole % (average values of four tests)) came out at 11 ± 1.4%. Further, in series [2], the “Percent inhibition” value is recorded as 25.6 ± 3.9%. Moreover, the “Antifibrinolytic effect / inhibition of clot lysis, in words” value in series [2] (chandler loop) is reported as “clot lysis was inhibited in a dose dependent manner”. The “Absorption of administered tranexamic acid, oral route” value in series [5] is recorded as 35-40%. Besides, the “Undesired side effects, in words” value in series [6] was “causes in some patients undesired side effects in the gastro-intestinal tract”.
